# Test results published in patent US20030113369A1, “Liposomes with enhanced circulation time and method of treatment” (priority 1991, published 2003).
# Entries after “also recorded” stand apart in the source; their conditions may differ.
# Columns and labels:
# [1] = test system: C-26 colon carcinoma; test: Tumor treatment with conventional doxorubicin liposomes; type: in vivo, mice; conditions: 10 mg/kg on days 8, 15 and 22; FIG. 17
# Description: Conventional doxorubicin liposomes (L-DOX) were prepared according to published methods (Gabizon, 1988). Briefly, a mixture of eggPG, Egg,PC, cholesterol and α-TC in a mole ratio of 0.3:1.4:1:0.2 was made in chloroform. The solvent was removed under reduced presssure and the dry lipid film hydrated with a solution of 155 mM NaCl containing 2-5 mg doxorubicin HCl. The resulting MLV preparation was down-sized by extrusion through a series of polycarbonate membranes to a final size of about 250 nm. The free (unentrapped) drug was removed by passing the suspension over a bed of Dowex resin. The final doxorubicin concentration was about […] lipid.
# Three groups of 7 mice were inoculated subcutaneously with 10^5-10^6 C-26 colon carcinoma cells as detailed in Example 15. The animals were divided into three, 7-animal treatment groups, one of which receivd 0.5 ml of saline vehicle as a control. The other two groups were treated with doxorubicin either as a free drug solution or in the form of L-DOX liposomes at a dose of 10 mg/kg. The treatments were given on days 8, 15 and 22 after tumor cell inoculation. Tumor size was measured on the days treatments were given and day 28.
# [2] = test system: C-26 colon carcinoma; test: Tumor treatment, subcutaneous colon carcinoma; type: in vivo, mice
# Description: Vesicle-forming lipids containing PEG-PE, PG, PHEPC, and cholesterol and α-TC in a mole ratio of 0.15:0.3:1.85:1:0.2 were dissolved in chloroform to a final lipid concentration of 25 μmol phospholipid/ml. The lipid mixture was dried into a thin film under reduced pressure. […] The MLV suspension was frozen in a dry ice acetone bath and thawed three times and sized to 80-100 nm by extrusion as detailed above. An ammonium ion gradient was created substantially as described in Example 10. The liposomes were loaded with epirubicin, and free (unbound drug) removed also as described in Example 10 for doxorubicin. […] Epirubicin HCl and doxorubicin HCL, the commercial products, were obtained from the hospital pharmacy.
# About 10^6 cells C-26 colon carcinoma cells were injected subcutaneously into three groups of 35 mice. The groups were subdivided into five 7-animal subgroups.
# Each group was followed for 28 days. Tumor size was measured for each animal on days 5, 7, 12, 14, 17, 21, 24 and 28. The growth of the tumor in each subgroup (expressed as the mean tumor size of the individual animals) at each time point is plotted in FIG. 15A.
# The same number of animals were inoculated with the same number of tumor cells as described above.
# [3] = Maximum tolerated dose; conditions: in mice; highest dose without death or dramatic weight loss within 14 days
# Description: Solutions of free doxorubicin HCl, epirubicin HCl were obtained as above. PEG-liposome formulations containing either doxorubicin or epirubicin, at a drug concentration of 70-90 μg compound/μmole liposome lipid, were prepared as described in Example 10. Conventional liposomes (no PEG-derivatized lipid) were loaded with doxorubicin to a drug concentration of […] lipid using standard techniques.
# Each of the five formulations was administered to 35 mice, at a dose between 10 and 40 mg drug/kg body weight, in 5 mg/kg increments, with five receiving each dosage.
# [4] = test system: J-6456 lymphoma; test: Tissue distribution of doxorubicin, ascites tumor; conditions: for Plasma: 10 mg/kg doxorubicin IV; for Plasma / Ascites Tumor (tumor & fluid) / Heart / Liver: value (SD); for Ascites Tumor (tumor & fluid) / Heart / Liver: 10 mg/kg
# Description: Two groups of 15 mice were injected interperitoneally with 10^6 J-6456 lymphoma cells. The tumor was allowed to grow for one-two weeks at which time 5 ml of ascites fluid had accumulated. The mice were then injected IV with 10 mg/kg doxorubicin either in free drug form (group 1) or entrapped in PEG liposomes as described in Example 11 (group 2). Ascites fluid was withdrawn from three animals in each group at 1, 4, 15, 24 and 48 hours post treatment. The ascites tumor was further fractionated into cellular and fluid components by centrifugation (15 min. 5000 rpm). Free and liposome-bound drug in the supernatant was determined by passing the fluid through a Dowex 50-WX-4 resin, as above, to remove free drug. The doxorubicin concentrations in the ascites fluid, tumor cells, supernatant, and resin-treated supernatant were then determined, and from these values, μg doxorubicin/gram tissue was calculated.
# In a similar experiment two groups of twelve mice were implanted IP with the J-6456 lymphoma and the tumor was allowed to establish as described above. Once the ascites tumor had reached about 5 ml, one group of animals was injected with 10 mg/kg free doxorubicin and the other group with 10 mg/kg doxorubicin entrapped in PEG liposomes. At 4, 24 and 48 hours post treatment ascites fluid and blood samples were withdrawn from four animals in each group and the animals were sacrificed. Sections of liver and heart tissue were excised from each animal, homogenized and drug concentration assayed as described above. Plasma was separated from whole blood by centrifugation and drug concentration assayed as stated above. Doxorubicin concentration in the ascites fluid was also measured. Plasma and ascites fluid levels are expressed as pg doxorubicin per ml and liver and heart tissue values as pg doxorubicin per gram tissue. The standard deviations for each measurement is shown in parentheses.
# [5] = Plasma kinetics of free and liposomal doxorubicin; conditions: dogs
# Description: (§1) The PEG-PE lipids were formulated with hydrogenated soy bean PC(HSPC) and cholesterol, in a mole ratio of 0.15:1.85:1 (PEG-Dox).
# (§2) A doxorubicin HCl solution (the marketed product, Free Dox) was obtained from the hospital pharmacy.
# (§3) Free DOX, PEG-Dox and HPI-Dox were diluted to the same concentration (1.8 mg/ml) using unbuffered 5% glucose on the day of injection. Dogs were randomized into three groups (2 females, 1 male) and weighed. An 18 gauge Venflon IV catheter was inserted in a superficial limb vein in each animal. The drug and liposome suspensions were injected by quick bolus (15 seconds). Four ml blood samples were before injection and at 5, 10, 15, 30, 45 min, 1, 2, 4, 6, 8, 10, 12, 24, 48 and 72 hours post injection. In the liposome groups blood was also drawn after 96, 120, 144, and 168 hours. Plasma was separated from the formed elements of the whole blood by centrifugation and doxorubicin concentrations assayed by standard fluorescence techniques. The amount of doxorubicin remaining in the blood was expressed as a percentage of peak concentration of labeled drug, measured immediately after injection.
# [6] = test system: J-6456 lymphoma; test: Tissue distribution of doxorubicin, subcutaneous tumor; type: in vivo, mice; conditions: heart, muscle, tumor at 4, 24, 48 hours; 10 mg/kg IV
# Description: That liposome delivery to the tumor is required for selective drug targeting can be seen from the study reported in Example 12. Here mice were inoculated subcutaneously with the J-6456 lymphoma which formed a solid tumor mass of about 1 cm^3 after one-two weeks. The animals were then injected either with free doxorubicin or doxorubicin loaded into PEG-liposomes at a dose of 10 mg drug per kg body weight. The tissue distribution (heart, muscle, and tumor) of the drug was then assayed at 4, 24, and 48 hours after drug administration.
# Two groups of twelve mice were injected subcutaneously with 10^6 J-6456 tumor cells. After 14 days the tumors had grown to about 1 cm^3 in size in the subcutaneous space and the animals were injected IV (tail vein) with 10 mg/kg doxorubicin as free drug (group 1) or encapsulated in PEG liposomes (group 2). At 4, 24, and 48 hours after drug injection, four animal in each group were sacrificed, and sections of tumor, heart, and muscle tissue were excised. Each tissue was weighed, then homogenized and extracted for determination of doxorubicin concentration using a standard florescence assay procedure Gabizon, 1989). The total drug measured in each homogenate was expressed as μg drug per gram tissue.
# [7] = Multidose toxicity of doxorubicin: weight change and histopathology; type: in vivo, mice; conditions: four weekly 10 mg/kg, sacrificed day 29
# Description: FIG. 20 is a plot of weight changes in normal Sabra male mice untreated (open circles) or treated with four weekly intravenous injections on days […] with a 10 mg/kg dose of either free doxorubicin (open triangles) or PEG liposomes with entrapped doxorubicin (open squares); and
# Similar reduced toxicity results were obtained when free doxorubicin was compared with PEG liposomes with entrapped doxorubicin, in groups of mice receiving four weekly injections of 10 mg/kg doxorubicin on days 1, 8, 15 and 22.
# [8] = test system: C-26 colon carcinoma; conditions: cited from earlier work
# [9] = Blood biochemistry; type: in vivo, mice; conditions: pooled serum
# Description: Blood chemistries were measured in groups of both male and female mice receiving the same dose and injection schedule of free or PEG-liposomes with entrapped epirubicin as above.
# [10] = test system: J-6456 lymphoma; test: Tumor treatment, survival after IP lymphoma implantation; type: in vivo, mice; conditions: 10 mg/kg IV
# Description: A doxorubicin HCl solution to be used as the free drug control was obtained from a hospital pharmacy. A total of 30 mice were injected IP with 10^6 J-6456 lymphoma cells. The animals were divided into three 10-animal groups, each of which was injected IV with 0.4 ml of either saline vehicle, 10 mg/kg doxorubicin solution or the doxorubicin-loaded liposomes at 10 mg/kg. Each group was followed for 100 days for number of surviving animals. The percent survivors for each treatment group is plotted in FIG. 16.
# [11] = test system: syngeneic mammary carcinoma cells (MC2); conditions: cited from earlier work
# [12] = dog, in vivo
# Description: as §1, §2, §3
smiles,measurement,setting,value
"COc1cccc2c1C(=O)c1c(O)c3c(c(O)c1C2=O)C[C@@](O)(C(=O)CO)C[C@@H]3O[C@H]1C[C@H](N)[C@H](O)[C@H](C)O1.Cl [Free DOX, Doxorubicin HCl]",tumor growth,[1],suppressed tumor growth to a modest extent compared with the saline control
same,survival of the animals at 120 days following tumor implantation,"[2]; 6 mg/kg on days 1, 8 and 15, seven animals per group",none
same,tumor growth compared with the saline control,"[2]; IV on days 1, 8 and 15, FIG. 15A",neither free doxorubicin nor free epirubicin at 6 mg/kg significantly suppressed tumor growth
same,Maximum Tolerated Dose,[3],10 to 12 mg/kg
same,Tumor/Heart,[4]; 4 hours,0.0052
same,Plasma,[4]; 4 hours,0.9 (0.0) μg/ml
same,Ascites Tumor (tumor & fluid),[4]; 4 hours,0.3 (0.1) μg/ml
same,Heart,[4]; 4 hours,5.7 (3.4) μg/gram
same,Liver,[4]; 4 hours,8.1 (1.4) μg/gram
same,Tumor/Heart,[4]; 24 hours,0.04
same,Plasma,[4]; 24 hours,0.0 µg/mL
same,Ascites Tumor (tumor & fluid),[4]; 24 hours,0.1 (0.1) μg/ml
same,Heart,[4]; 24 hours,2.5 (0.3) μg/gram
same,Liver,[4]; 24 hours,6.2 (4.8) μg/gram
same,Tumor/Heart,[4]; 48 hours,0.266
same,Plasma,[4]; 48 hours,0.0 µg/mL
same,Ascites Tumor (tumor & fluid),[4]; 48 hours,0.4 (0.3) μg/ml
same,Heart,[4]; 48 hours,1.5 (0.6) μg/gram
same,Liver,[4]; 48 hours,6.1 (3.6) μg/gram
same,t1/2,[5],1.9 to 3.3 h
same,selective drug accumulation in the tumor,[6],No selective drug accumulation into the tumor occurred
same,"histopathology, gonads",[7],lack of follicular maturation and of spermatogenesis
same,"histopathology, heart",[7],mild to moderate myolysis was seen in all (13) mice
same,"histopathology, kidney",[7],advanced signs of nephrosis
same,"histopathology, lungs, adrenals, small bowel, pancreas, urinary bladder",[7],No damage was observed
same,"histopathology, spleen",[7],reversible atrophy of the red and white pulp
same,"histopathology, liver","[7]; listed as free doxorubicin, HCl",hematopoiesis foci were present in both groups; also recorded: microcytosis was also observed
same,in vitro activity against C-26 colon carcinoma,[8],show in vitro activity against this tumor
same,Albumin,[9]; females,31 g/1
same,Alk. Phos.,[9]; females,162 μ/1
same,Calcium,[9]; females,2.9 mmol/1
same,Chloride,[9]; females,118 mmol/1
same,Cholesterol,[9]; females,4.7 mmol/1
same,Creatinine,[9]; females,123 μmol/1
same,Glucose,[9]; females,2.9 mmol/1
same,Phosphorus,[9]; females,3.4 mmol/1
same,Sodium,[9]; females,154 mmol/1
same,Total protein,[9]; females,57 g/1
same,Urea,[9]; females,12.5 mmol/1
same,Uric acid,[9]; females,350 μmol/1
same,Albumin,[9]; males,21 g/1
same,Alk. Phos.,[9]; males,129 μ/1
same,Bilirubin,[9]; males,0 μmol/1
same,Calcium,[9]; males,1.6 mmol/1
same,Chloride,[9]; males,117 mmol/1
same,Cholesterol,[9]; males,6.0 mmol/1
same,Creatinine,[9]; males,37 μmol/1
same,Glucose,[9]; males,1.3 mmol/1
same,Phosphorus,[9]; males,5.2 mmol/1
same,Sodium,[9]; males,150 mmol/1
same,Total protein,[9]; males,39 g/1
same,Urea,[9]; males,12.4 mmol/1
same,Uric acid,[9]; males,333 μmol/1
same,survival relative to the saline group,[10],little improvement in survival over the saline group
same,in vitro sensitivity of MC2 cells,[11],sensitive in vitro
same,AUC,[12],7.1 to 10.0 mg/L
same,clearance,[12],10 to 15 mL/min
same,Kinetic Pattern,[12]; iv,Bi-exp.
same,Peak Conc.,[12]; iv,0.4 to 2.2 mg/L
